Data taken from patent publication US8530465B2, “1, 2-disubstituted amido-anthraquinone derivatives, preparation method and application thereof” (National Defense Medical Center, priority 2010, dated 2013).

What was measured:
Format in all cases: cell-based, human
SW-620 = test: NCI drug screen, SW-620; settings: SW-620 (Colon Cancer); 1.00E−5 Molar
Protocol: (§1) In brief, cellular protein levels were determined after 48 hours of drug exposure by sulforhodamine B colorimetry. Through the use of a time 0 cell control, the cell growth can be determined for each cell line thus allowing calculations of the 50% growth inhibitory concentration (GI50), the total growth inhibition (TGI), and the 50% lethal concentration (LC50). Comparison to plates not exposed to drug permits determination of concentration and times of exposure conferring 50% net growth inhibition (GI50), TGI, and 50% cell kill (LC50).
(§2) The screening system in United State National Cancer Institute (NCI) is consisted of 60 kinds of different human cancer cells, which can be used to assay the growth-inhibiting ability or cell toxicity of a compound against various cancer and tumor at a certain concentration.

HT29 = test: NCI drug screen, HT29; settings: HT29 (Colon Cancer); 1.00E−5 Molar
Protocol: as §1, §2

CAKI-1 = test: NCI drug screen, CAKI-1; settings: CAKI-1 (Renal Cancer); 1.00E−5 Molar
Protocol: as §1, §2

M14 = test: NCI drug screen, M14; settings: M14 (Melanoma); 1.00E−5 Molar
Protocol: as §1, §2

RPMI-8226 = test: NCI drug screen, RPMI-8226; settings: RPMI-8226 (Leukemia); 1.00E−5 Molar
Protocol: as §1, §2

NCI-H23 = test: NCI drug screen, NCI-H23; settings: NCI-H23 (Non-Small Cell Lung Cancer); 1.00E−5 Molar
Protocol: as §1, §2

SNB-75 = test: NCI drug screen, SNB-75; settings: SNB-75 (CNS Cancer); 1.00E−5 Molar
Protocol: as §1, §2

SK-MEL-28 = test: NCI drug screen, SK-MEL-28; settings: SK-MEL-28 (Melanoma); 1.00E−5 Molar
Protocol: as §1, §2

H1299 = test: MTT assay, PhTERT-SEAP (H1299); settings: H1299; SEAP and MTT analysis
Method in brief: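 Cultured cells received MTT for 4 h at 37 °C, then lysis buffer overnight at 37 °C. Optical density was read at 550 nm.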

SMILES	Growth Percent (SW-620) [%]	Growth Percent (HT29) [%]	Growth Percent (CAKI-1) [%]	Growth Percent (M14) [%]	Growth Percent (RPMI-8226) [%]	Growth Percent (NCI-H23) [%]	Growth Percent (SNB-75) [%]	Growth Percent (SK-MEL-28) [%]	inhibitory activity among compounds CC-35 to CC-50 (H1299)
Cc1ccc(C(=O)Nc2ccc3c(c2NC(=O)c2ccc(C)cc2)C(=O)c2ccccc2C3=O)cc1 [CC-04, 1,2-bis-(4-methylbenzamido)-anthraquinone]	93.79	99.39	94.89	91.57	101.77	90.57	102.26	99.46	
O=C(CCl)Nc1ccc2c(c1NC(=O)Cc1ccccc1)C(=O)c1ccccc1C2=O [CC-23, 1-[2-(phenyl)acetylamino]-2-(chloroacetamido)-anthraquinone]	83.41	88.84		87.10		64.75	109.14	88.68	
Cc1ccc(C(=O)Nc2c(NC(=O)CN3CCN(C)CC3)ccc3c2C(=O)c2ccccc2C3=O)cc1 [CC-43, 1-(4-methylbenzamido)-2-[2-(4-methylpiperazino)acetylamino]-anthraquinone]	39.17	3.69	69.76	−60.04		89.52	82.17	−57.56	higher inhibitory activity
Cc1ccc(C(=O)Nc2c(NC(=O)CN3CCCC3)ccc3c2C(=O)c2ccccc2C3=O)cc1 [CC-38, 1-(4-methylbenzamido)-2-[2-(tetrahydro-1H-1-pyrrolyl)acetylamino]-anthra quinone]	82.29	31.34	55.64	88.01		73.29	66.03	92.18	
Cc1ccc(C(=O)Nc2c(NC(=O)CCl)ccc3c2C(=O)c2ccccc2C3=O)cc1 [CC-12, 1-(4-methylbenzamido)-2-(chloroacetamido)-anthraquinone]	−43.27	3.37		−22.68		−85.89	6.31	−31.94	
